From PMC10287695, “Non-covalent inhibitors of thioredoxin glutathione reductase with schistosomicidal activity in vivo” (Nature Communications, 2023)
Several values for one entry are separate records, joined by “and”; a condition that tells them apart may be missing. Identical values can stand only once. Like-named read-outs stand apart in the source and are kept apart here. Marks after values point to notes of the source that are not given here.

Assays:
[1] = system: S. mansoni juvenile worms (21 days); test: Schistosomicidal activity ex vivo, juvenile worms (21 days); format: cell-based
Summary of the method: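 Worms recovered from infected Swiss-Webster mice and cultured overnight, then exposed in triplicate to compounds in RPMI (juvenile, adult) at <1% DMSO; 5 µM AF as positive control. Viability calculated as test mean over DMSO-control mean ×100; adult worms read by CellTiter-Glo, alone or with channel blockers.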

S. japonicum adult worms = test: Schistosomicidal activity ex vivo, S. japonicum adult worms; format: cell-based
Experimental: Three-week old, female Swiss-Webster mice obtained from the Charles River were housed in the Comparative Research Center of Rush University Medical Center. Mice were infected by percutaneous tail exposure to about 200 S. mansoni or 50 S. japonicum cercaria for adult worms and about 1000 cercaria for juvenile S. mansoni worms through natural transdermal penetration of the cercariae for 1 h[81].
DMSO formulated compounds were diluted with phenol red free M199 medium or RPMI medium for NTS or juvenile and adult worms, respectively, at <1% DMSO final concentrations. NTS, juvenile and adult worms from overnight cultures were tested against compounds in triplicate. Controls were treated with DMSO alone or 5 µM AF as a positive control in appropriate medium. […] Schistosome viabilities in the presence of the compounds were assessed using this formula: % Viability = Averages of Test / Averages of DMSO Control x 100.

BmTrxR = BmTrxR (Brugia malayi, UniProt A0A1I9G0T9); test: B. malayi TrxR enzyme inhibition; format: biochemical
Summary of the method: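 Recombinant, purified BmTrxR in a DTNB reduction assay: reaction started with an equal volume of DTNB (6 mM) and NADPH (100 µM), and the A412 increase over the first 3 min recorded. Run in triplicate; IC50 from curve fitting.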

TGR [2] = target: T1, TGR (Schistosoma mansoni, UniProt Q962Y6); test: Time dependence of inhibition; format: biochemical; conditions: panel c, replicates
T1 construct: made in house
T1 sequence (Q962Y6 1-598): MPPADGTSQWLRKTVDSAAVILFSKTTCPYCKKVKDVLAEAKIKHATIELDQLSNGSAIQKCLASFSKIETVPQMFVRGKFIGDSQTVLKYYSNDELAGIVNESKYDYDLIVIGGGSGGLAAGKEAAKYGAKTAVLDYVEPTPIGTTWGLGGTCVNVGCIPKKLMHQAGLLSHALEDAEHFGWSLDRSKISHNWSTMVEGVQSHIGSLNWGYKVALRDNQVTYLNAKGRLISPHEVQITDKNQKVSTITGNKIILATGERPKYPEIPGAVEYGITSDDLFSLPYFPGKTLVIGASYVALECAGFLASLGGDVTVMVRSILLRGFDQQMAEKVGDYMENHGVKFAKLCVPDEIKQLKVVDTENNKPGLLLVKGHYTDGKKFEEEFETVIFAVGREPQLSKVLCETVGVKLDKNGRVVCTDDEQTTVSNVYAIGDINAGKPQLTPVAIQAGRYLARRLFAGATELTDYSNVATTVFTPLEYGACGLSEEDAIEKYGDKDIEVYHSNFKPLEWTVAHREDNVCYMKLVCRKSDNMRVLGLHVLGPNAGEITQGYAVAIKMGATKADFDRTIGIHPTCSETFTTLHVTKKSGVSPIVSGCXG
Experimental: TGR was incubated at room temperature (up to 6 h) and at 4 °C for 6 to 24 h with 50 µM inhibitor and 100 µM NADPH for the indicated times. Then DTNB (3 mM) and NADPH (100 µM) were added, and the reaction was monitored at A412 for 5 min. The assay was done in triplicate.

TGR [3] = target: T1, TGR; test: Thermal shift assay (TSA); format: binding; set-up: key to Avg. Tm / Tm, replicate 1-3: Tm in °C, from a 25–95 °C melt curve
TGR [4] = target: T1, TGR; test: Reversibility by jump dilution; format: biochemical
Experimental: A reaction of 370 nM TGR, 100 µM NADPH, and 250 µM inhibitor was incubated for 15 min at room temperature. A 100x dilution of the reaction was made and the activity was determined immediately and after 60 min.

[5] = D0: diluted 1:100, activity determined immediately, list for plotting
[6] = D60: diluted 1:100, activity determined after 60 min, list for plotting

Chain of BmTrxR (A0A1I9G0T9 entry or part of it, added parts left off): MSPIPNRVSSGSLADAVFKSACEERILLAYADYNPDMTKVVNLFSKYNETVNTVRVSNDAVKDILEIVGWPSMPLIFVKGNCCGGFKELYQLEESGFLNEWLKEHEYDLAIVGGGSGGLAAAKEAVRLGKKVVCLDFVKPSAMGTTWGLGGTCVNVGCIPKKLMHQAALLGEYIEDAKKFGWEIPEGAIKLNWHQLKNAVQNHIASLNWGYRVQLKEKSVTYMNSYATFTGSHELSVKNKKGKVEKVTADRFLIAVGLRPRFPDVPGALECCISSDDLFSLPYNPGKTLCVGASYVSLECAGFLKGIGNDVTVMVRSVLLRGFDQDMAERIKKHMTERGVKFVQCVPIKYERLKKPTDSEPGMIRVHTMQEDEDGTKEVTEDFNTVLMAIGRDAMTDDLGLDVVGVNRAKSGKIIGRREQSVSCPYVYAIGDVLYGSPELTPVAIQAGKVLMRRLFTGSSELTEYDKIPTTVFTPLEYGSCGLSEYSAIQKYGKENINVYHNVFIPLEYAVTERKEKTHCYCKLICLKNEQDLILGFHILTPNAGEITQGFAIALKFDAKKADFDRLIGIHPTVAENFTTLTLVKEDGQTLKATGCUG

C[C@@H]1[C@H]2C[C@@H](C[C@H]1NCc1nc3ccccc3n1C1CCCCCC1)C2(C)C [Compound 8]
viability at 5 µM ([1]; Schistosoma mansoni, 23 day S. mansoni worms, 48 HR, Conc. 5 µM): 83.5% | viability at 15 µM ([1]; Schistosoma mansoni, 23 day S. mansoni worms, 48 HR, Conc. 15 µM): 66% | viability at 30 µM ([1]; Schistosoma mansoni, 23 day S. mansoni worms, 48 HR, Conc. 30 µM): 57.2% | LD50 ex vivo S. mansoni 21 days ([1]; juvenile worms, 48 h exposure): >30^a µM | LD50 ex vivo S. japonicum adult (S. japonicum adult worms; 48 h exposure): 25.8 ± 1.87 µM | viability at 5 µM (S. japonicum adult worms; Schistosoma japonicum, S. japonicum adult worms, 48 hr, Conc. 5 µM): 70.6% | viability at 15 µM (S. japonicum adult worms; Schistosoma japonicum, S. japonicum adult worms, 48 hr, Conc. 15 µM): 60.8% | viability at 30 µM (S. japonicum adult worms; Schistosoma japonicum, S. japonicum adult worms, 48 hr, Conc. 30 µM): 43.4% | inhibition at 10 µM (BmTrxR; BmTrxR, 10 µM compound, mean of 3 replicates, read-out: % inhibition): 17.7% | inhibition at 25 µM (BmTrxR; BmTrxR, 25 µM compound, mean of 3 replicates, read-out: % inhibition): 43.3% | inhibition at 50 µM (BmTrxR; BmTrxR, 50 µM compound, mean of 3 replicates, read-out: % inhibition): 68.2% | inhibition at 50 µM (BmTrxR; read-out: BmTrxR % inhibition at 50 µM, 50 µM, the highest concentration tested): 67.7% | TGR activity relative to dmso, time 0 (TGR [2]; time 0 (time unit not given)): 81.9258 and 91.2824 and 94.0371 | TGR activity relative to dmso, time 5 (TGR [2]; time 5 (time unit not given)): 16.4661 and 22.6942 and 32.7859 | TGR activity relative to dmso, time 10 (TGR [2]; time 10 (time unit not given)): 10.3137 and 9.575 and 9.146 | TGR activity relative to dmso, time 15 (TGR [2]; time 15 (time unit not given)): 4.106 and 4.258 and 6.77 | TGR activity relative to dmso, time 30 (TGR [2]; time 30 (time unit not given)): 0.4436 and 0.7059 and 0.3756 | Avg. Tm (TGR [3]; TGR + 100 µM compound): 73.8333 | Avg. Tm, + 500 µM NADPH (TGR [3]; TGR + 100 µM compound + 500 µM NADPH): 70 | Tm, replicate 1-3, + 500 µM NADPH (TGR [3]; TGR + 100 µM compound + 500 µM NADPH, single replicates, in °C (unit assumed)): 69 and 70 and 71 | Tm, replicate 1-3 (TGR [3]; TGR + 100 µM compound, single replicates): 73.5 and 74 (2×) | % Activity (ID list), D0 (TGR [4]; [5]): 90.8% and 93.4% and 92.5% | % Inhibition (ID list), D0 (TGR [4]; [5]): 9.2% and 6.6% and 7.5% | % Activity (ID list), D60 (TGR [4]; [6]): 93.9% and 90.9% and 93.8% | % Inhibition (ID list), D60 (TGR [4]; [6]): 6.1% and 9.1% and 6.2% | Inhibitor (rate), 0 min (TGR [4]; [0, D0]: 15 min preincubation inhibitor + TGR + NADPH, diluted 1:100, then activity determined immediately, raw rate): 0.05404 and 0.05709 and 0.05725 | % Activity, 0 min (TGR [4]; [0, D0]: 15 min preincubation inhibitor + TGR + NADPH, diluted 1:100, then activity determined immediately, relative to DMSO): 90.8083% and 93.3911% and 92.5327% | Inhibitor (rate), 60 min (TGR [4]; [60, D60]: 15 min preincubation inhibitor + TGR + NADPH, diluted 1:100, then activity determined after 60 min, raw rate): 0.05102 and 0.05246 and 0.05311 | % Activity, 60 min (TGR [4]; [60, D60]: 15 min preincubation inhibitor + TGR + NADPH, diluted 1:100, then activity determined after 60 min, relative to DMSO): 93.9422% and 90.9343% and 93.8339% | Inhibitor (rate), -15 (TGR [4]; [-15]: 15 min preincubation inhibitor + TGR + NADPH, then activity determined, raw rate, replicates): 0.005946 and 0.01664 and 0.01823 | % Activity, -15 (TGR [4]; [-15]: 15 min preincubation inhibitor + TGR + NADPH, then activity determined, relative to DMSO, replicates): 12.3643% and 34.0704% and 37.3107% | % Inhibition (ID list) (TGR [4]; before dilution (-15), list for plotting): 77.7% and 75.9% and 68.7%
